≈ marks a conversion by molar mass, not a printed value.
What was measured:
Format in all cases: functional
Pseudomonas fluorescens [1] = assay: Bactericidal activity against Pseudomonas fluorescens
[2] = tested on: Pectobacterium carotovorum; assay: Bactericidal activity against Erwinia carotovora
Aspergillus ochraceus [3] = assay: Antifungal activity Aspergillus ochraceus by microdilution method
Aspergillus ochraceus [4] = assay: Fungicidal activity Aspergillus ochraceus
Aspergillus versicolor [5] = assay: Fungicidal activity Aspergillus versicolor
Bacillus subtilis [6] = assay: Antibacterial activity against Bacillus subtilis by microdilution method
Aspergillus niger [7] = assay: Fungicidal activity Aspergillus niger
Penicillium ochrochloron [8] = assay: Fungicidal activity Penicillium ochrochloron
Erwinia amylovora [9] = assay: Antibacterial activity against Erwinia amylovora by microdilution method
Aspergillus versicolor [10] = assay: Antifungal activity Aspergillus versicolor by microdilution method
Penicillium cyclopium [11] = assay: Fungicidal activity Penicillium verrucosum var. cyclopium
Bacillus subtilis [12] = assay: Bactericidal activity against Bacillus subtilis
Penicillium ochrochloron [13] = assay: Antifungal activity Penicillium ochrochloron by microdilution method
Aspergillus fumigatus [14] = assay: Fungicidal activity Aspergillus fumigatus
Xanthomonas campestris [15] = assay: Antibacterial activity against Xanthomonas campestris by microdilution method
Talaromyces funiculosus [16] = assay: Antifungal activity Penicillium funiculosum by microdilution method
Talaromyces funiculosus [17] = assay: Fungicidal activity Penicillium funiculosum
Aspergillus niger [18] = assay: Antifungal activity Aspergillus niger by microdilution method
Erwinia amylovora [19] = assay: Bactericidal activity against Erwinia amylovora
Xanthomonas campestris [20] = assay: Bactericidal activity against Xanthomonas campestris
Trichoderma viride [21] = assay: Fungicidal activity Trichoderma viride
Penicillium cyclopium [22] = assay: Antifungal activity Penicillium verrucosum var. cyclopium by microdilution method
Trichoderma viride [23] = assay: Antifungal activity Trichoderma viride by microdilution method
Pseudomonas fluorescens [24] = assay: Antibacterial activity against Pseudomonas fluorescens by microdilution method
[25] = tested on: Pectobacterium carotovorum; assay: Antibacterial activity against Erwinia carotovora by microdilution method
Aspergillus fumigatus [26] = assay: Antifungal activity Aspergillus fumigatus by microdilution method

Row | SMILES | MBC (Pseudomonas fluorescens [1]) [µM] | MBC [2] [µM] | MIC (Aspergillus ochraceus [3]) [µM] | MFC (Aspergillus ochraceus [4]) [µM] | MFC (Aspergillus versicolor [5]) [µM] | MIC (Bacillus subtilis [6]) [µM] | MFC (Aspergillus niger [7]) [µM] | MFC (Penicillium ochrochloron [8]) [µM] | MIC (Erwinia amylovora [9]) [µM] | MIC (Aspergillus versicolor [10]) [µM] | MFC (Penicillium cyclopium [11]) [µM] | MBC (Bacillus subtilis [12]) [µM] | MIC (Penicillium ochrochloron [13]) [µM] | MFC (Aspergillus fumigatus [14]) [µM] | MIC (Xanthomonas campestris [15]) [µM] | MIC (Talaromyces funiculosus [16]) [µM] | MFC (Talaromyces funiculosus [17]) [µM] | MIC (Aspergillus niger [18]) [µM] | MBC (Erwinia amylovora [19]) [µM] | MBC (Xanthomonas campestris [20]) [µM] | other results
1 | CC(C)(C)c1cc(/C=C(/C(=O)c2ccc(Cl)cc2Cl)n2cncn2)cc(C(C)(C)C)c1O | 9 (≈ 4.25 µg/mL) | 9 (≈ 4.25 µg/mL) | 60 (≈ 28.3 µg/mL) | 160 (≈ 75.6 µg/mL) | 160 (≈ 75.6 µg/mL) | 17 (≈ 8.03 µg/mL) | 160 (≈ 75.6 µg/mL) | 160 (≈ 75.6 µg/mL) | 17 (≈ 8.03 µg/mL) | 80 (≈ 37.8 µg/mL) | 320 (≈ 151 µg/mL) | 17 (≈ 8.03 µg/mL) | 80 (≈ 37.8 µg/mL) | 160 (≈ 75.6 µg/mL) | 17 (≈ 8.03 µg/mL) | 120 (≈ 56.7 µg/mL) | 160 (≈ 75.6 µg/mL) | 80 (≈ 37.8 µg/mL) | 17 (≈ 8.03 µg/mL) | 17 (≈ 8.03 µg/mL) | MFC (Trichoderma viride [21]): 80 µM (≈ 37.8 µg/mL); MIC (Penicillium cyclopium [22]): 160 µM (≈ 75.6 µg/mL); MIC (Trichoderma viride [23]): 30 µM (≈ 14.2 µg/mL); MIC (Pseudomonas fluorescens [24]): 9 µM (≈ 4.25 µg/mL); MIC [25]: 4.5 µM (≈ 2.13 µg/mL); MIC (Aspergillus fumigatus [26]): 80 µM (≈ 37.8 µg/mL)
2 | CN(C)c1ccc(/C=C(/C(=O)c2ccc3ccccc3c2)n2cncn2)cc1 | 2.7 (≈ 0.995 µg/mL) | 2.7 (≈ 0.995 µg/mL) | 70 (≈ 25.8 µg/mL) | 140 (≈ 51.6 µg/mL) | 270 (≈ 99.5 µg/mL) | 5.4 (≈ 1.99 µg/mL) | 270 (≈ 99.5 µg/mL) | 270 (≈ 99.5 µg/mL) | 2.7 (≈ 0.995 µg/mL) | 140 (≈ 51.6 µg/mL) | 270 (≈ 99.5 µg/mL) | 5.4 (≈ 1.99 µg/mL) | 140 (≈ 51.6 µg/mL) | 270 (≈ 99.5 µg/mL) | 2.7 (≈ 0.995 µg/mL) | 190 (≈ 70 µg/mL) | 270 (≈ 99.5 µg/mL) | 140 (≈ 51.6 µg/mL) | 5.4 (≈ 1.99 µg/mL) | 5.4 (≈ 1.99 µg/mL) | MFC (Trichoderma viride [21]): 140 µM (≈ 51.6 µg/mL); MIC (Penicillium cyclopium [22]): 140 µM (≈ 51.6 µg/mL); MIC (Trichoderma viride [23]): 70 µM (≈ 25.8 µg/mL); MIC (Pseudomonas fluorescens [24]): 2.7 µM (≈ 0.995 µg/mL); MIC [25]: 2.7 µM (≈ 0.995 µg/mL); MIC (Aspergillus fumigatus [26]): 140 µM (≈ 51.6 µg/mL)
3 | CC1(C)S[C@@H]2[C@H](NC(=O)[C@H](N)c3ccccc3)C(=O)N2[C@H]1C(=O)O [AMPICILLIN] | 8.6 (≈ 3 µg/mL) | 0.2 (≈ 0.0699 µg/mL) |  |  |  | 0.2 (≈ 0.0699 µg/mL) |  |  | 0.25 (≈ 0.0874 µg/mL) |  |  | 0.2 (≈ 0.0699 µg/mL) |  |  | 0.2 (≈ 0.0699 µg/mL) |  |  |  | 0.5 (≈ 0.175 µg/mL) | 0.2 (≈ 0.0699 µg/mL) | MIC (Pseudomonas fluorescens [24]): 8.6 µM (≈ 3 µg/mL); MIC [25]: 0.1 µM (≈ 0.0349 µg/mL)
4 | c1ccc(-c2ccc(C(c3ccccc3)n3ccnc3)cc2)cc1 (centres undefined) [BIFONAZOLE] |  |  | 480 (≈ 149 µg/mL) | 640 (≈ 199 µg/mL) | 640 (≈ 199 µg/mL) |  | 640 (≈ 199 µg/mL) | 810 (≈ 251 µg/mL) |  | 320 (≈ 99.3 µg/mL) | 640 (≈ 199 µg/mL) |  | 640 (≈ 199 µg/mL) | 640 (≈ 199 µg/mL) |  | 640 (≈ 199 µg/mL) | 810 (≈ 251 µg/mL) | 480 (≈ 149 µg/mL) |  |  | MFC (Trichoderma viride [21]): 640 µM (≈ 199 µg/mL); MIC (Penicillium cyclopium [22]): 320 µM (≈ 99.3 µg/mL); MIC (Trichoderma viride [23]): 480 µM (≈ 149 µg/mL); MIC (Aspergillus fumigatus [26]): 480 µM (≈ 149 µg/mL)
5 | O=C(N[C@H](CO)[C@H](O)c1ccc([N+](=O)[O-])cc1)C(Cl)Cl [CHLORAMPHENICOL] | 0.5 (≈ 0.162 µg/mL) | 0.5 (≈ 0.162 µg/mL) |  |  |  | 0.3 (≈ 0.0969 µg/mL) |  |  | 0.15 (≈ 0.0485 µg/mL) |  |  | 0.3 (≈ 0.0969 µg/mL) |  |  | 0.1 (≈ 0.0323 µg/mL) |  |  |  | 0.3 (≈ 0.0969 µg/mL) | 0.1 (≈ 0.0323 µg/mL) | MIC (Pseudomonas fluorescens [24]): 0.5 µM (≈ 0.162 µg/mL); MIC [25]: 0.25 µM (≈ 0.0808 µg/mL)
6 | CC(=O)N1CCN(c2ccc(OCC3COC(Cn4ccnc4)(c4ccc(Cl)cc4Cl)O3)cc2)CC1 (centres undefined) [KETOCONAZOLE] |  |  | 280 (≈ 149 µg/mL) | 380 (≈ 202 µg/mL) | 940 (≈ 500 µg/mL) |  | 940 (≈ 500 µg/mL) | 2820 (≈ 1500 µg/mL) |  | 380 (≈ 202 µg/mL) | 570 (≈ 303 µg/mL) |  | 1880 (≈ 999 µg/mL) | 940 (≈ 500 µg/mL) |  | 380 (≈ 202 µg/mL) | 940 (≈ 500 µg/mL) | 380 (≈ 202 µg/mL) |  |  | MFC (Trichoderma viride [21]): 2820 µM (≈ 1500 µg/mL); MIC (Penicillium cyclopium [22]): 380 µM (≈ 202 µg/mL); MIC (Trichoderma viride [23]): 1880 µM (≈ 999 µg/mL); MIC (Aspergillus fumigatus [26]): 380 µM (≈ 202 µg/mL)
